We go through eight compounds from PubChem BioAssay (NCI).

Test systems include A498 renal; A549 NSCLC; CCRF-CEM leukemia; COLO 205 colon; EKVX NSCLC; HCC-2998 colon; HCT-15 colon; HL-60(TB) leukemia; HT29 colon; MDA-MB-435; MDA-N; MOLT-4 leukemia; NCI-H23 lung; OVCAR-8 ovarian; RPMI-8226 leukemia; SK-MEL-5 melanoma; SNB-19 CNS; SR leukemia; MCF7 breast; SNB-75 CNS.
Common to all, as to experiment: NCI anticancer screen, dose series, 48 h

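Compound exposure: 48 hours, 5 concentrations, 96-well plates. Definition used: TGI = concentration required for complete inhibition of growth.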

Turning to `CCOC(=O)C1=C(O)CC(=O)N=C1N1CCCC1`, the TGI with A498 renal, with A549 NSCLC, with CCRF-CEM leukemia, with COLO 205 colon, with EKVX NSCLC and in the experiment on HCC-2998 colon was > 100 µM each time. For the same compound, the TGI in the experiment with HCT-15 colon, in the experiment on HL-60(TB) leukemia, with HT29 colon, with MDA-MB-435, in the experiment on MDA-N and in the experiment on MOLT-4 leukemia was > 100 µM each time. The TGI in the experiment on NCI-H23 lung, in the experiment on OVCAR-8 ovarian, with RPMI-8226 leukemia, in the experiment with SK-MEL-5 melanoma, in the experiment with SNB-19 CNS and with SR leukemia was > 100 µM in each case.

With `C[C@]12CC[C@H]3[C@@H](CC=C4C[C@@H](O)CC[C@@]43C)[C@@H]1C/C(=C\c1cccnc1)[C@@H]2O`, the TGI in the experiment on A498 renal was 42.9 µM; with A549 NSCLC, > 100 µM; in the experiment on CCRF-CEM leukemia it was > 100 µM; in the experiment with COLO 205 colon, > 100 µM; in the experiment with EKVX NSCLC it was 35.8 µM; with HCT-15 colon it was > 100 µM. Also, the TGI was > 100 µM in the experiment on HT29 colon; 42.5 µM with MCF7 breast; > 100 µM with MDA-MB-435; > 100 µM in the experiment on MDA-N; > 100 µM with NCI-H23 lung; 36.3 µM in the experiment on OVCAR-8 ovarian. The TGI in the experiment on RPMI-8226 leukemia was > 100 µM; in the experiment on SNB-19 CNS, 61.5 µM; in the experiment with SR leukemia, > 100 µM.

With `CCOc1ccc2nc(NC(=O)C(=O)C3C(=O)C(CC4C(=O)c5ccccc5C4=O)C(=O)CC3(C)C)sc2c1` (stereo unspecified), the TGI was > 100 µM with A549 NSCLC; 70.1 µM with CCRF-CEM leukemia; > 100 µM with COLO 205 colon; > 100 µM in the experiment on EKVX NSCLC; > 100 µM with HCC-2998 colon; > 100 µM in the experiment with HCT-15 colon. The TGI in the experiment with HL-60(TB) leukemia was 64.2 µM; with HT29 colon it was > 100 µM; with MCF7 breast it was > 100 µM; in the experiment with MDA-MB-435, > 100 µM; in the experiment on MDA-N, > 100 µM; in the experiment with MOLT-4 leukemia, 90.4 µM. Also, the TGI with NCI-H23 lung, in the experiment on OVCAR-8 ovarian, in the experiment on SK-MEL-5 melanoma, with SNB-19 CNS and in the experiment with SNB-75 CNS was > 100 µM throughout.

For the compound `CC(=O)c1csc2c1C(=O)c1ccccc1C2=O`, the TGI in the experiment with A498 renal was > 100 µM; with A549 NSCLC it was 4.06 µM; in the experiment on CCRF-CEM leukemia, 4.01 µM; in the experiment with COLO 205 colon, 3.62 µM; in the experiment on EKVX NSCLC, 18.6 µM; with HCC-2998 colon it was 3.2 µM. Besides, the TGI with HCT-15 colon worked out at 10.3 µM; with HL-60(TB) leukemia it was 19.5 µM; with HT29 colon, 4.5 µM; in the experiment with MCF7 breast, 5.22 µM; in the experiment on MDA-MB-435, 3.97 µM; in the experiment with MDA-N, 4.21 µM. Further, the TGI was > 66.7 µM in the experiment on MOLT-4 leukemia; 3.59 µM in the experiment on NCI-H23 lung; 7.11 µM in the experiment with OVCAR-8 ovarian; 89.9 µM in the experiment with RPMI-8226 leukemia; 0.376 µM in the experiment on SK-MEL-5 melanoma; 5.06 µM in the experiment with SNB-19 CNS. Besides, the TGI in the experiment on SNB-75 CNS was 3.11 µM.

As to `CCN(CC)c1c(C(C)(C)C)c(=O)n2ccsc2c1OC(C)=O`, the TGI in the experiment on A498 renal was 33.6 µM; in the experiment on A549 NSCLC, 28.2 µM; in the experiment with CCRF-CEM leukemia, > 100 µM; in the experiment with COLO 205 colon it was 31.8 µM; in the experiment with EKVX NSCLC, 29.3 µM; in the experiment with HCC-2998 colon, 32.2 µM. In addition, the TGI in the experiment on HCT-15 colon is 30.7 µM; with HL-60(TB) leukemia, > 100 µM; in the experiment with HT29 colon, 28.4 µM; in the experiment on MCF7 breast, 28.9 µM; in the experiment on MDA-MB-435, 32.5 µM; in the experiment on MDA-N, 34.6 µM. Also, the TGI is > 100 µM with MOLT-4 leukemia; 30.7 µM with NCI-H23 lung; 29.1 µM in the experiment on OVCAR-8 ovarian; > 100 µM in the experiment with RPMI-8226 leukemia; 32.2 µM in the experiment on SK-MEL-5 melanoma; 30.4 µM in the experiment with SNB-19 CNS. The compound further had a TGI with SNB-75 CNS of 31 µM.

On to `C[N+](C)(CCNc1ccc(NCC[N+](C)(C)Cc2ccc([N+](=O)[O-])cc2)c2c1C(=O)c1c(O)ccc(O)c1C2=O)Cc1ccc([N+](=O)[O-])cc1`, for which the TGI in the experiment with A498 renal, in the experiment with A549 NSCLC, with CCRF-CEM leukemia, in the experiment on COLO 205 colon, in the experiment with EKVX NSCLC and in the experiment on HCC-2998 colon was > 50 µM each time. In addition, the TGI was > 50 µM in the experiment on HCT-15 colon; > 50 µM with HL-60(TB) leukemia; > 50 µM with HT29 colon; > 50 µM in the experiment on MDA-MB-435; > 50 µM in the experiment with MDA-N; > 5 µM in the experiment on MOLT-4 leukemia. Besides, the TGI with NCI-H23 lung, in the experiment with OVCAR-8 ovarian, in the experiment with RPMI-8226 leukemia, in the experiment on SK-MEL-5 melanoma and in the experiment on SNB-75 CNS was > 50 µM throughout.

`Cc1ccc(S(=O)(=O)N/N=C2\C=CC3(CC2)C(=O)N(I)c2ccccc23)cc1` (stereo unspecified): the TGI in the experiment on A498 renal, in the experiment with A549 NSCLC, in the experiment with CCRF-CEM leukemia, in the experiment on COLO 205 colon, with EKVX NSCLC and with HCC-2998 colon was > 100 µM in each case. Also, the TGI in the experiment with HCT-15 colon, with HT29 colon, in the experiment on MDA-MB-435, in the experiment on MDA-N, with MOLT-4 leukemia and in the experiment on NCI-H23 lung was > 100 µM in each case. Besides, the TGI in the experiment on OVCAR-8 ovarian, in the experiment on RPMI-8226 leukemia, in the experiment with SK-MEL-5 melanoma, in the experiment with SNB-19 CNS, with SNB-75 CNS and in the experiment with SR leukemia was > 100 µM in each case.

In the case of `CC(=O)N[C@@H](Cc1ccc(O)cn1)C(=O)NCc1ccc(Cl)cc1`, the TGI in the experiment with A498 renal, in the experiment with A549 NSCLC, with CCRF-CEM leukemia, in the experiment on COLO 205 colon, with EKVX NSCLC and in the experiment with HCC-2998 colon was > 100 µM in each case. Further, the TGI with HCT-15 colon, with HL-60(TB) leukemia, with HT29 colon, in the experiment with MCF7 breast, with MDA-MB-435 and with MDA-N was > 100 µM throughout. The TGI in the experiment with MOLT-4 leukemia, with NCI-H23 lung, in the experiment on OVCAR-8 ovarian, in the experiment with RPMI-8226 leukemia, with SK-MEL-5 melanoma and in the experiment on SNB-19 CNS was > 100 µM in each case.
